Laboratory results published in PubChem BioAssay (NCI).
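1) Cells in 96-well plates. 2) Compound, 48 h, 5 concentrations. 3) Linear interpolation between surrounding doses. 4) Unreached endpoint = highest concentration. GI50 is the concentration that inhibits growth by half. TGI denotes the concentration required for complete inhibition of growth.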

How the values were obtained:
Test in all cases: DTP human tumour cell line panel, 48 h
KM12 colon = test system: KM12 colon
A498 renal = test system: A498 renal
OVCAR-4 ovarian = test system: OVCAR-4 ovarian
HCT-15 colon = test system: HCT-15 colon
SW-620 colon = test system: SW-620 colon
SK-MEL-5 melanoma = test system: SK-MEL-5 melanoma
TK-10 renal = test system: TK-10 renal
A549 NSCLC = test system: A549 NSCLC
MCF7 breast = test system: MCF7 breast
NCI-H23 lung = test system: NCI-H23 lung
HT29 colon = test system: HT29 colon
SK-MEL-2 melanoma = test system: SK-MEL-2 melanoma
NCI/ADR-RES ovarian = test system: NCI/ADR-RES ovarian
HCC-2998 colon = test system: HCC-2998 colon
SF-539 CNS = test system: SF-539 CNS
CCRF-CEM leukemia = test system: CCRF-CEM leukemia
UO-31 renal = test system: UO-31 renal
SNB-19 CNS = test system: SNB-19 CNS
NCI-H226 lung = test system: NCI-H226 lung
SNB-75 CNS = test system: SNB-75 CNS
MDA-N = test system: MDA-N
SR leukemia = test system: SR leukemia
IGROV1 ovarian = test system: IGROV1 ovarian
786-0 renal = test system: 786-0 renal
K-562 leukemia = test system: K-562 leukemia
SF-295 CNS = test system: SF-295 CNS
NCI-H460 lung = test system: NCI-H460 lung
M14 melanoma = test system: M14 melanoma
MOLT-4 leukemia = test system: MOLT-4 leukemia
EKVX NSCLC = test system: EKVX NSCLC
OVCAR-5 ovarian = test system: OVCAR-5 ovarian
UACC-62 melanoma = test system: UACC-62 melanoma
SK-MEL-28 melanoma = test system: SK-MEL-28 melanoma
HCT-116 colon = test system: HCT-116 colon
U251 CNS = test system: U251 CNS
SK-OV-3 ovarian = test system: SK-OV-3 ovarian
SF-268 CNS = test system: SF-268 CNS
HOP-92 NSCLC = test system: HOP-92 NSCLC
UACC-257 melanoma = test system: UACC-257 melanoma
SN12C renal = test system: SN12C renal
HOP-62 NSCLC = test system: HOP-62 NSCLC
LOX IMVI melanoma = test system: LOX IMVI melanoma
T-47D breast = test system: T-47D breast
NCI-H522 lung = test system: NCI-H522 lung
MALME-3M melanoma = test system: MALME-3M melanoma
BT-549 breast = test system: BT-549 breast
PC-3 prostate = test system: PC-3 prostate
OVCAR-3 ovarian = test system: OVCAR-3 ovarian
ACHN renal = test system: ACHN renal
OVCAR-8 ovarian = test system: OVCAR-8 ovarian
CAKI-1 renal = test system: CAKI-1 renal
HS 578T breast = test system: HS 578T breast
DU-145 prostate = test system: DU-145 prostate
RXF 393 renal = test system: RXF 393 renal
MDA-MB-435 = test system: MDA-MB-435
COLO 205 colon = test system: COLO 205 colon
HL-60(TB) leukemia = test system: HL-60(TB) leukemia
MDA-MB-231 breast = test system: MDA-MB-231 breast
KM20L2 colon = test system: KM20L2 colon

## OC1(c2ccccc2)CSC2=Nc3ccccc3C3CCN1N23 (stereo unspecified)
KM12 colon
  TGI: 42 µM
A498 renal
  TGI: 44.7 µM
OVCAR-4 ovarian
  TGI: > 100 µM
HCT-15 colon
  TGI: 39.1 µM
SW-620 colon
  TGI: 47.1 µM
SK-MEL-5 melanoma
  TGI: 35.9 µM
TK-10 renal
  TGI: 43.2 µM
A549 NSCLC
  TGI: 74.3 µM
MCF7 breast
  TGI: 46 µM
NCI-H23 lung
  TGI: 79.2 µM
HT29 colon
  TGI: 33.8 µM
SK-MEL-2 melanoma
  TGI: 32.1 µM
NCI/ADR-RES ovarian
  TGI: 63.9 µM
HCC-2998 colon
  TGI: 88.7 µM
SF-539 CNS
  TGI: 30.8 µM
CCRF-CEM leukemia
  TGI: 94.1 µM
UO-31 renal
  TGI: 28.7 µM
SNB-19 CNS
  TGI: 37.4 µM
NCI-H226 lung
  TGI: > 100 µM
SNB-75 CNS
  TGI: 25.5 µM
MDA-N
  TGI: 27.2 µM
SR leukemia
  TGI: 55.4 µM
IGROV1 ovarian
  TGI: 27.4 µM
786-0 renal
  TGI: 34.4 µM
K-562 leukemia
  TGI: > 100 µM
SF-295 CNS
  TGI: 33.8 µM
NCI-H460 lung
  TGI: > 100 µM
M14 melanoma
  TGI: 38.3 µM
MOLT-4 leukemia
  TGI: 80.9 µM
EKVX NSCLC
  TGI: 28.6 µM
OVCAR-5 ovarian
  TGI: 32 µM
UACC-62 melanoma
  TGI: 46.3 µM
SK-MEL-28 melanoma
  TGI: 11.3 µM
HCT-116 colon
  TGI: 44.1 µM
U251 CNS
  TGI: 28.1 µM
SK-OV-3 ovarian
  TGI: > 100 µM
SF-268 CNS
  TGI: 58.5 µM
HOP-92 NSCLC
  TGI: 69.6 µM
UACC-257 melanoma
  TGI: 86.8 µM
SN12C renal
  TGI: 40.1 µM
HOP-62 NSCLC
  TGI: 50 µM
LOX IMVI melanoma
  TGI: 36.9 µM
T-47D breast
  TGI: 47.5 µM
NCI-H522 lung
  TGI: 40.5 µM
MALME-3M melanoma
  TGI: 81.7 µM
BT-549 breast
  TGI: 57.4 µM
PC-3 prostate
  TGI: 29.5 µM
OVCAR-3 ovarian
  TGI: > 100 µM
ACHN renal
  TGI: 54.1 µM
OVCAR-8 ovarian
  TGI: 43.5 µM
CAKI-1 renal
  TGI: 72.6 µM
HS 578T breast
  TGI: > 100 µM
DU-145 prostate
  TGI: 29.7 µM
RXF 393 renal
  TGI: 36.9 µM
MDA-MB-435
  TGI: 34 µM
COLO 205 colon
  TGI: 32.3 µM
HL-60(TB) leukemia
  TGI: 71.1 µM
MDA-MB-231 breast
  TGI: 31.9 µM

## O=C(N/N=C/c1cc(Cl)cc(Cl)c1O)c1ccccc1O
KM12 colon
  GI50: 3.72 µM
  TGI: 34.7 µM
A498 renal
  TGI: 40.6 µM
HCT-15 colon
  TGI: 15.7 µM
SW-620 colon
  TGI: 21.5 µM
SK-MEL-5 melanoma
  TGI: 5.38 µM
TK-10 renal
  TGI: 70.3 µM
A549 NSCLC
  GI50: 1.45 µM
  TGI: 15.8 µM
NCI-H23 lung
  GI50: 2.69 µM
HT29 colon
  TGI: 26.1 µM
SK-MEL-2 melanoma
  GI50: 1.39 µM
  TGI: 6.87 µM
HCC-2998 colon
  TGI: 14.6 µM
SF-539 CNS
  GI50: 1.75 µM
  TGI: 6.69 µM
CCRF-CEM leukemia
  TGI: > 100 µM
UO-31 renal
  TGI: 29.5 µM
SNB-19 CNS
  TGI: 43.7 µM
SNB-75 CNS
  TGI: 22.5 µM
SR leukemia
  TGI: > 100 µM
IGROV1 ovarian
  TGI: 19.2 µM
K-562 leukemia
  TGI: > 100 µM
SF-295 CNS
  TGI: 11.3 µM
NCI-H460 lung
  TGI: 18.8 µM
M14 melanoma
  TGI: 4.07 µM
MOLT-4 leukemia
  GI50: 0.375 µM
  TGI: > 100 µM
EKVX NSCLC
  GI50: 1.71 µM
  TGI: > 100 µM
OVCAR-5 ovarian
  TGI: 7.82 µM
UACC-62 melanoma
  TGI: 3.89 µM
KM20L2 colon
  GI50: 4.85 µM
SK-MEL-28 melanoma
  TGI: 25.2 µM
HCT-116 colon
  GI50: 2.48 µM
  TGI: 14.5 µM
U251 CNS
  TGI: 18.4 µM
SK-OV-3 ovarian
  TGI: 15.3 µM
SF-268 CNS
  TGI: 30.8 µM
HOP-92 NSCLC
  GI50: 3.69 µM
  TGI: 19.7 µM
UACC-257 melanoma
  TGI: 14.6 µM
SN12C renal
  TGI: 23.3 µM
LOX IMVI melanoma
  TGI: 24.9 µM
NCI-H522 lung
  TGI: 3.18 µM
MALME-3M melanoma
  GI50: 2.8 µM
  TGI: 11.6 µM
OVCAR-3 ovarian
  TGI: 1.65 µM
ACHN renal
  TGI: 5.57 µM
OVCAR-8 ovarian
  TGI: 13.9 µM
RXF 393 renal
  TGI: 4.97 µM
COLO 205 colon
  GI50: 11.2 µM
  TGI: > 100 µM
